Calls of active or inactive are those of the source. The rule behind the calls is not given here.
Test system: GENE-TOX genotoxicity assays, various organisms and cells
Experiment: GENE-TOX mutagenicity studies
Settings: for call: Assay Type: In vivo carcinogenicity studies
[1] = Species/Cell Type: Salmonella typhimurium, Assay Type: Forward and reverse gene mutation, host-mediated assay, Assay Code: HMA-, Evaluation Type: Evaluation A (Pre-1980)
[2] = Species/Cell Type: Salmonella typhimurium (one or more of the five standard strains: TA98, TA100, TA1535, TA1537, and TA1538), Assay Type: Histidine reverse gene mutation, Ames assay, Assay Code: SAL+, Evaluation Type: Evaluation A (Pre-1980)
[3] = Species/Cell Type: Chinese hamster ovary (CHO) cells, Assay Type: Forward gene mutation at the HPRT locus, Assay Code: CHOT, Evaluation Type: Evaluation B (Post-1980)
[4] = Species/Cell Type: Human lymphocytes, Assay Type: Sister-chromatid exchange (SCE) in vitro, Assay Code: SCL+D, Dose Response: With dose response, Evaluation Type: Evaluation B (Post-1980)
[5] = Species/Cell Type: Human, Assay Type: Sister-chromatid exchange (SCE) in vitro, Assay Code: SC1+D, Dose Response: With dose response, Evaluation Type: Evaluation B (Post-1980)
[6] = Species/Cell Type: Mammalian polychromatic erythrocytes, Assay Type: Micronucleus test, chromosome aberrations, Assay Code: MNT+, Evaluation Type: Evaluation B (Post-1980)
[7] = Species/Cell Type: Salmonella typhimurium (one or more of the five standard strains: TA98, TA100, TA1535, TA1537, and TA1538), Assay Type: Histidine reverse gene mutation, Ames assay, Assay Code: SALT, Evaluation Type: Evaluation A (Pre-1980)
[8] = Species/Cell Type: Drosophila melanogaster, Assay Type: Sex-linked recessive lethal gene mutation, Assay Code: SRLT, Evaluation Type: Evaluation A (Pre-1980)
[9] = Species/Cell Type: Saccharomyces cerevisiae, Assay Type: Mitotic recombination or gene conversion, Assay Code: YEH-, Evaluation Type: Evaluation A (Pre-1980)
[10] = Species/Cell Type: Saccharomyces cerevisiae, Assay Type: Reverse gene mutation, Assay Code: YERT, Evaluation Type: Evaluation A (Pre-1980)

Compound: O=C1CCC(N2C(=O)c3ccccc3C2=O)C(=O)N1 (stereo not drawn)
- mutagenic call (Species/Cell Type: Allium cepa, Assay Type: Chromosome aberrations, Assay Code: ALC+, Evaluation Type: Evaluation A (Pre-1980)): active; positive
- mutagenic call (Species/Cell Type: Drosophila melanogaster, Assay Type: Aneuploidy, partial sex chromosome loss, chromosome aberrations, Assay Code: DAP-M, Evaluation Type: Evaluation A (Pre-1980)): inactive; negative
- mutagenic call (Species/Cell Type: Drosophila melanogaster, Assay Type: Aneuploidy, sex chromosome gain, chromosome aberrations, Assay Code: DAG-M, Evaluation Type: Evaluation A (Pre-1980)): inactive; negative
- mutagenic call (Species/Cell Type: Drosophila melanogaster, Assay Type: Aneuploidy, whole sex chromosome loss, chromosome aberrations, Assay Code: DAC-M, Evaluation Type: Evaluation A (Pre-1980)): inactive; negative
- mutagenic call (Species/Cell Type: Mouse, Sex: Male, Assay Type: Sperm morphology, Assay Code: SPI-, Evaluation Type: Evaluation A (Pre-1980)): inactive; negative
- mutagenic call [1]: inactive; negative
- mutagenic call (Species/Cell Type: Vicia faba, Assay Type: Chromosome aberrations, Assay Code: VIC+, Evaluation Type: Evaluation A (Pre-1980)): active; positive

Compound: CN[C@@H]1[C@H](O[C@H]2[C@H](O[C@H]3[C@H](O)[C@@H](O)[C@H](N=C(N)N)[C@@H](O)[C@@H]3N=C(N)N)O[C@@H](C)[C@]2(O)CO)O[C@@H](CO)[C@H](O)[C@H]1O
- mutagenic call (Species/Cell Type: Vicia faba, Assay Type: Chromosome aberrations, Assay Code: VIC-, Evaluation Type: Evaluation A (Pre-1980)): inactive; negative

Compound: CCN(CC)CCOc1ccc2c(c1)C(=O)c1cc(OCCN(CC)CC)ccc1-2
- mutagenic call (Species/Cell Type: Mouse (C3H/10T1/2) cells, Assay Type: Cell transformation, Assay Code: CTH-, Evaluation Type: Evaluation A (Pre-1980)): inactive; negative
- mutagenic call (Species/Cell Type: Nonhuman, Assay Type: Sister-chromatid exchange (SCE) in vitro, Assay Code: SC2-, Evaluation Type: Evaluation A (Pre-1980)): inactive; negative
- mutagenic call (Species/Cell Type: Nonhuman, Assay Type: Sister-chromatid exchange (SCE) in vitro, Assay Code: SC2T, Evaluation Type: Evaluation B (Post-1980)): no conclusion
- mutagenic call [2]: active; positive

Compound: CN(N=O)C(=O)Oc1ccccc1Cl
- mutagenic call (Species/Cell Type: Bacillus subtilis (H17 vs M45T), Assay Type: Rec-assay, spot test, DNA effects (bacterial DNA repair), Assay Code: REX+, Evaluation Type: Evaluation A (Pre-1980)): active; positive
- mutagenic call (Species/Cell Type: Escherichia coli WP2, Assay Type: Tryptophan reverse gene mutation, Assay Code: WP2+, Evaluation Type: Evaluation A (Pre-1980)): active; positive

Compound: Cc1cc(Cl)ccc1N
- call (Species/Cell Type: Nonhuman, Assay Code: CCG+, Evaluation Type: Evaluation A (Pre-1980)): active; positive

Compound: NC(=O)N/N=C/c1ccco1
- mutagenic call (Species/Cell Type: Escherichia coli WP2 UVRA, Assay Type: Tryptophan reverse gene mutation, Assay Code: WPU-, Evaluation Type: Evaluation A (Pre-1980)): inactive; negative

Compound: Cc1c2ccccc2cc2c3c(ccc12)C=CC(O)C3O (stereo not drawn)
- mutagenic call (Species/Cell Type: Salmonella typhimurium (one or more of the five standard strains: TA98, TA100, TA1535, TA1537, and TA1538), Assay Type: Histidine reverse gene mutation, Ames assay, Assay Code: SAL+*, Activation: With metabolic activation, Evaluation Type: Evaluation A (Pre-1980)): active; positive

Compound: O=c1c(O)c(-c2ccc(O)c(O)c2)oc2cc(O)cc(O)c12
- mutagenic call [3]: no conclusion
- mutagenic call [4]: active; positive
- mutagenic call [5]: active; positive
- mutagenic call [6]: active; positive
- mutagenic call (Species/Cell Type: Nonhuman, Assay Type: Sister-chromatid exchange (SCE) in vitro, Assay Code: SC2+/-*, Activation: With metabolic activation, Evaluation Type: Evaluation B (Post-1980)): inactive; positive without activation, negative with activation
- mutagenic call (Species/Cell Type: Nonhuman, Assay Type: Sister-chromatid exchange (SCE) in vivo, Assay Code: SC3-, Evaluation Type: Evaluation B (Post-1980)): inactive; negative
- mutagenic call (Species/Cell Type: Saccharomyces cerevisiae, Assay Type: Mitotic recombination or gene conversion, Assay Code: YEC+, Evaluation Type: Evaluation A (Pre-1980)): active; positive
- mutagenic call [2]: active; positive

Compound: CCNC(=S)NCC
- call (Species/Cell Type: Nonhuman, Assay Code: CCG+L, Evaluation Type: Evaluation A (Pre-1980)): active; positive
- mutagenic call (Species/Cell Type: Syrian hamster embryo (SA7/SHE) cells, Assay Type: Cell transformation, viral enhanced, Assay Code: CT7-, Evaluation Type: Evaluation A (Pre-1980)): inactive; negative

Compound: O=S(=O)(O)c1ccc(N=Nc2ccc(N=Nc3c(O)c(S(=O)(=O)O)cc4cc(S(=O)(=O)O)ccc34)c(S(=O)(=O)O)c2)cc1
- mutagenic call [7]: no conclusion

Compound: COc1ccc2c3c(n(CC=C(C)C)c2c1)[C@H](C=C(C)C)N1C(=O)[C@@H]2CCCN2C(=O)[C@]1(O)[C@H]3O
- mutagenic call [7]: no conclusion

Compound: Cc1ccc(C(C)C)c(O)c1
- mutagenic call (Species/Cell Type: Allium cepa, Assay Type: Chromosome aberrations, Assay Code: ALC-, Evaluation Type: Evaluation A (Pre-1980)): inactive; negative
- mutagenic call [8]: no conclusion

Compound: CCn1c2cc(=N[N+]#N)ccc-2c2ccc(N=[N+]=[N-])cc2c1-c1ccccc1
- mutagenic call (Species/Cell Type: Saccharomyces cerevisiae, Assay Type: Mitotic recombination or gene conversion, Assay Code: YECT, Evaluation Type: Evaluation A (Pre-1980)): no conclusion
- mutagenic call [9]: inactive; negative
- mutagenic call [10]: no conclusion

Compound: COc1cc2c(c3oc(=O)c4c(c13)CCC4=O)[C@@H]1C(Cl)C(O)O[C@@H]1O2 (stereo partly drawn)
- mutagenic call [7]: no conclusion

Compound: Cn1c(N)nc2c3cccnc3ccc21
- mutagenic call [3]: no conclusion
- mutagenic call (Species/Cell Type: Mammalian polychromatic erythrocytes, Assay Type: Micronucleus test, chromosome aberrations, Assay Code: MNT-, Evaluation Type: Evaluation B (Post-1980)): inactive; negative
- mutagenic call (Species/Cell Type: Nonhuman, Assay Type: Sister-chromatid exchange (SCE) in vitro, Assay Code: SC2+D*, Activation: With metabolic activation, Dose Response: With dose response, Evaluation Type: Evaluation B (Post-1980)): active; positive
- mutagenic call (Species/Cell Type: Nonhuman, Assay Type: Sister-chromatid exchange (SCE) in vivo, Assay Code: SC3+, Evaluation Type: Evaluation B (Post-1980)): active; positive

Compound: CN=NNc1c(Cl)cc(Cl)cc1Cl
- mutagenic call [8]: no conclusion

Compound: COC(=O)COc1ccc(Cl)cc1CSC(=N)N
- mutagenic call [10]: no conclusion

Compound: CCOP(=S)(NC(C)C)Oc1ccccc1C(=O)OC(C)C (stereo not drawn)
- mutagenic call (Species/Cell Type: Nonhuman, Assay Type: Sister-chromatid exchange (SCE) in vitro, Assay Code: SC2-, Evaluation Type: Evaluation B (Post-1980)): inactive; negative

Compound: Nc1ccc(N)c(Cl)c1
- call (Species/Cell Type: Nonhuman, Assay Code: CCG-L, Evaluation Type: Evaluation A (Pre-1980)): inactive; negative

Compound: S=C=Nc1cccc2ccccc12
- mutagenic call (Species/Cell Type: Escherichia coli polA (W3110 vs P3478), Assay Type: Rec-assay, DNA effects (bacterial DNA repair), Assay Code: RE2-, Evaluation Type: Evaluation A (Pre-1980)): inactive; negative
- mutagenic call (Species/Cell Type: Escherichia coli polA (W3119 vs P3478), Assay Type: Rec-assay, DNA effects (bacterial DNA repair), Assay Code: RE1T, Evaluation Type: Evaluation A (Pre-1980)): no conclusion
- mutagenic call (Species/Cell Type: Mouse (BALB/c-3T3) cells, Assay Type: Cell transformation, Assay Code: CTB+D, Dose Response: With dose response, Evaluation Type: Evaluation A (Pre-1980)): active; positive
- call (Species/Cell Type: Nonhuman, Assay Code: CCGT, Evaluation Type: Evaluation A (Pre-1980)): no conclusion
- mutagenic call [9]: inactive; negative
- mutagenic call [1]: inactive; negative
- mutagenic call (Species/Cell Type: Syrian hamster embryo (SHE) cells, Assay Type: Cell transformation, clonal assay, Assay Code: CTC-, Evaluation Type: Evaluation A (Pre-1980)): inactive; negative

Compound: O=[N+]([O-])c1cc(Cl)cc(Sc2cc(Cl)cc([N+](=O)[O-])c2O)c1O
- mutagenic call (Species/Cell Type: Mammalian polychromatic erythrocytes, Assay Type: Micronucleus test, chromosome aberrations, Assay Code: MNTT, Evaluation Type: Evaluation B (Post-1980)): no conclusion

Compound: O[C@@H]1[C@H]2O[C@H]2c2cc3c(ccc4ccccc43)cc2[C@H]1O
- mutagenic call (Species/Cell Type: Chinese hamster lung (V79) cells, Assay Type: Forward gene mutation at the HPRT or ouabain locus, Assay Code: V79+, Evaluation Type: Evaluation A (Pre-1980)): active; positive
- mutagenic call [2]: active; positive

Compound: Nc1nc(-c2cc([N+](=O)[O-])c[nH]2)cs1
- mutagenic call [7]: no conclusion

Compound: COc1c(OC)c(O)c2c(=O)c(OC)c(-c3ccc(O)c(O)c3)oc2c1OC
- mutagenic call [6]: active; positive

Compound: Nc1c2ccccc2nc2ccccc12
- mutagenic call (Species/Cell Type: Human diploid fibroblasts, Assay Type: Unscheduled DNA synthesis (UDS) in vitro, DNA effects, Assay Code: UDH-, Evaluation Type: Evaluation A (Pre-1980)): inactive; negative
- mutagenic call (Species/Cell Type: Nonhuman, Assay Type: Sister-chromatid exchange (SCE) in vitro, Assay Code: SC2+, Evaluation Type: Evaluation B (Post-1980)): active; positive
- mutagenic call [2]: active; positive

Compound: [Se]
- mutagenic call [4]: active; positive
- mutagenic call [5]: active; positive

Compound: O=S(=O)(O)c1cc(O)c2c(O)c(N=Nc3ccccc3)c(S(=O)(=O)O)cc2c1
- mutagenic call (Species/Cell Type: Bacillus subtilis (H17 vs M45), Assay Type: Rec-assay, spot test, DNA effects (bacterial DNA repair), Assay Code: REWT, Evaluation Type: Evaluation A (Pre-1980)): no conclusion

Compound: Cc1cc(O)ccc1C1(c2ccc(O)cc2C)OS(=O)(=O)c2ccccc21
- mutagenic call (Species/Cell Type: Allium cepa, Assay Type: Chromosome aberrations, Assay Code: ALC+D, Dose Response: With dose response, Evaluation Type: Evaluation A (Pre-1980)): active; positive

Compound: CCN(N=O)C(=O)Nc1ccccc1
- mutagenic call (Species/Cell Type: Nonhuman, Assay Type: Sister-chromatid exchange (SCE) in vitro, Assay Code: SC2+D, Dose Response: With dose response, Evaluation Type: Evaluation B (Post-1980)): active; positive
